Assay results taken from patent US20170058314A1, “NOVEL METHODOLOGY FOR IDENTIFYING ANTI-PERSISTER ACTIVITY AND ANTIMICROBIAL SUSCEPTIBILITY FOR BORRELIA BURGDORFERI AND OTHER BACTERIA” (priority 2014, published 2017).
Structures can show the parent of a compound that is named as a salt.

Tests used:
[1] = system: stationary phase B. burgdorferi persisters (strain B31); assay: SYBR Green I/PI viability assay (plate reader), FDA-approved drug library screen; conditions: for Ratio of Green/Red fluorescence, Primary screening / Ratio of Green/Red fluorescence, Rescreening (first column) / Ratio of Green/Red fluorescence, Rescreening (second column) / Residual viable cells (regression equation, SYBR Green I/PI assay): 50 μM; for Ratio of Green/Red fluorescence, Primary screening / Ratio of Green/Red fluorescence, Rescreening (first column) / Ratio of Green/Red fluorescence, Rescreening (second column): 7 days, stationary phase; for viability at 50 µM: Borreliella burgdorferi, 168 h, read-out: Residual viable cells (regression equation, SYBR Green I/PI assay); for Residual viable cells (regression equation, SYBR Green I/PI assay): 7-day old stationary phase cells treated for 7 days; for activity against stationary phase B. burgdorferi (words; SYBR Green I/PI assay): FDA drug screen
[2] = system: round body form of B. burgdorferi; assay: SYBR Green I/PI assay on amoxicillin-induced round body form; conditions: for viability at 50 µM: Borreliella burgdorferi, 168 h, read-out: Residual viable cells (SYBR Green I/PI assay)

Row | Molecule | Ratio of Green/Red fluorescence, Primary screening [1] | Ratio of Green/Red fluorescence, Rescreening (first column) [1] | Ratio of Green/Red fluorescence, Rescreening (second column) [1] | viability at 50 µM [1] | Residual viable cells (regression equation, SYBR Green I/PI assay) [1] | viability at 50 µM [2] | Ratios of green/red fluorescence, Primary screening ([2]; round body form, 50 μM, 7 days) | Ratios of green/red fluorescence, Rescreening (first column) ([2]; round body form, 50 μM, 7 days) | Ratios of green/red fluorescence, Rescreening (second column) ([2]; round body form, 50 μM, 7 days) | activity against stationary phase B. burgdorferi (words; SYBR Green I/PI assay) [1] | Residual viable cells (SYBR Green I/PI assay) ([2]; round body form, 50 μM, 7 days)
1 | CCN(CC)Cc1cc(Nc2ccnc3cc(Cl)ccc23)ccc1O [Amodiaquin] | 6.79 | 6.44 | 6.85 | 45% |  |  |  |  |  |  | 
2 | C[C@@H]1[C@H](O)[C@@H](C)/C=C/C=C/C=C/C=C/C=C/C=C/C=C/[C@H](O[C@@H]2O[C@H](C)[C@@H](O)[C@H](N)[C@@H]2O)C[C@@H]2O[C@](O)(C[C@@H](O)C[C@@H](O)[C@H](O)CC[C@@H](O)C[C@@H](O)CC(=O)O[C@H]1C)C[C@H](O)[C@H]2C(=O)O [Amphotericin B] | 7.14 | 6.88 | 6.87 |  | 50% |  |  |  |  |  | 
3 | C[C@H]1[C@H](NC(=O)/C(=N\OC(C)(C)C(=O)O)c2csc(N)n2)C(=O)N1S(=O)(=O)O [Aztreonam] |  |  |  |  |  | 34% | 6.16 | 6.38 | 6.33 |  | 
4 | [Bi] [Bismuth] | 6.94 | 6.82 | 6.92 |  | 48% |  |  |  |  |  | 
5 | Cn1nnnc1SCC1=C(C(=O)O)N2C(=O)[C@@H](NC(=O)[C@H](O)c3ccccc3)[C@H]2SC1 [Cefamandole] | 6.71 | 7.73 | 6.52 | 50% |  |  |  |  |  |  | 
6 | Cc1nnc(SCC2=C(C(=O)O)N3C(=O)[C@@H](NC(=O)Cn4cnnn4)[C@H]3SC2)s1 [Cefazolin] |  |  |  |  |  | 34% | 6.23 | 6.34 | 6.29 |  | 
7 | C=CC1=C(C(=O)O)N2C(=O)[C@@H](NC(=O)/C(=N\O)c3csc(N)n3)[C@H]2SC1 [Cefdinir] | 6.88 | 7.51 | 6.29 | 48% |  |  |  |  |  |  | 
8 | CO/N=C(\C(=O)N[C@@H]1C(=O)N2C(C(=O)[O-])=C(C[N+]3(C)CCCC3)CS[C@H]12)c1csc(N)n1 [Cefepime] | 6.67 | 7.16 | 6.45 | 44% |  |  |  |  |  |  | 
9 | C=CC1=C(C(=O)O)N2C(=O)[C@@H](NC(=O)/C(=N\OCC(=O)O)c3csc(N)n3)[C@H]2SC1 [Cefixime] |  |  |  |  |  | 34% | 6.41 | 6.21 | 6.27 |  | 
10 | CO/N=C(\C(=O)N[C@@H]1C(=O)N2C(C(=O)O)=C(CSc3nnnn3C)CS[C@H]12)c1csc(N)n1 [Cefmenoxime] | 6.82 | 7.59 | 6.32 | 48% |  | 32% | 6.18 | 6.33 | 6.28 |  | 
11 | O=C(O)C1=C(CSc2nnnn2CS(=O)(=O)O)CS[C@@H]2[C@H](NC(=O)[C@H](O)c3ccccc3)C(=O)N12 [Cefonicid] | 6.86 | 7.54 | 6.07 | 46% |  |  |  |  |  |  | 
12 | NCc1ccccc1CC(=O)N[C@@H]1C(=O)N2C(C(=O)O)=C(CSc3nnnn3CC(=O)O)CS[C@H]12 [Ceforanide] | 6.89 | 7.49 | 6.33 | 48% |  |  |  |  |  |  | 
13 | CC(C)(O/N=C(\C(=O)N[C@@H]1C(=O)N2C(C(=O)[O-])=C(C[n+]3ccccc3)CS[C@H]12)c1csc(N)n1)C(=O)O [Ceftazidime] |  |  |  |  |  | 34% | 6.20 | 6.34 | 6.37 |  | 
14 | CO/N=C(\C(=O)N[C@@H]1C(=O)N2C(C(=O)O)=CCS[C@H]12)c1csc(N)n1 [Ceftizoxime] | 6.94 | 6.83 | 7.03 | 49% |  |  |  |  |  |  | 
15 | CN(C)[C@@H]1C(O)=C(C(N)=O)C(=O)[C@@]2(O)C(O)=C3C(=O)c4c(O)ccc(Cl)c4[C@@](C)(O)[C@H]3C[C@@H]12 [Chlortetracycline] |  |  |  |  |  | 31% | 6.20 | 6.36 | 6.18 |  | 
16 | C[C@@H]1O[C@@H]1P(=O)(O)O [Fosfomycin] |  |  |  |  |  | 31% | 6.39 | 6.12 | 6.16 |  | 
17 | C=C1c2c(Cl)ccc(O)c2C(=O)C2=C(O)[C@]3(O)C(=O)C(C(N)=O)=C(O)[C@@H](N(C)C)[C@@H]3[C@@H](O)[C@H]12 [Meclocycline] |  |  |  |  |  | 33% | 6.52 | 6.23 | 6.09 |  | 

Row | Molecule | Ratio of Green/Red fluorescence, Primary screening [1] | Ratio of Green/Red fluorescence, Rescreening (first column) [1] | Ratio of Green/Red fluorescence, Rescreening (second column) [1] | viability at 50 µM [1] | Residual viable cells (regression equation, SYBR Green I/PI assay) [1] | viability at 50 µM [2] | Ratios of green/red fluorescence, Primary screening ([2]; round body form, 50 μM, 7 days) | Ratios of green/red fluorescence, Rescreening (first column) ([2]; round body form, 50 μM, 7 days) | Ratios of green/red fluorescence, Rescreening (second column) ([2]; round body form, 50 μM, 7 days) | activity against stationary phase B. burgdorferi (words; SYBR Green I/PI assay) [1] | Residual viable cells (SYBR Green I/PI assay) ([2]; round body form, 50 μM, 7 days)
18 | O=[N+]([O-])c1ccc(/C=N/O)o1 [Nifuroxime] |  |  |  |  |  | 30% | 6.10 | 6.32 | 6.22 |  | 
19 | C=C[C@H]1C[N@@]2CC[C@H]1C[C@H]2[C@H](O)c1ccnc2ccc(OC)cc12 [Quinine hydrobromide] | 7.00 | 6.85 | 6.88 | 50% |  |  |  |  |  |  | 
20 | CN(C)[C@@H]1C(O)=C(C(=O)NCN2CCCC2)C(=O)[C@@]2(O)C(O)=C3C(=O)c4c(O)cccc4[C@@](C)(O)[C@H]3C[C@@H]12 [Rolitetracycline] |  |  |  |  |  | 35% | 6.23 | 6.35 | 6.37 |  | 
21 | CN[C@@H]1[C@@H](O)[C@@H](O[C@@H]2[C@@H](O)[C@H](O[C@H]3OC(CN)=CC[C@H]3N)[C@@H](N)C[C@H]2N)OC[C@]1(C)O [Sisomicin] |  |  |  |  |  | 33% | 6.27 | 6.12 | 6.45 |  | 
22 | CC(=O)NS(=O)(=O)c1ccc(N)cc1 [Sulfacetamide] |  |  |  |  |  | 29% | 6.26 | 6.14 | 6.20 |  | 
23 | COc1cnc(NS(=O)(=O)c2ccc(N)cc2)nc1 [Sulfameter] | 7.13 | 7.46 | 6.98 | 54% |  |  |  |  |  | effective | 
24 | COc1ccc(NS(=O)(=O)c2ccc(N)cc2)nn1 [Sulfamethoxypyridazine] |  |  |  |  |  | 30% | 6.20 | 6.07 | 6.34 |  | 
25 | Nc1ccc(S(=O)(=O)O)cc1 [Sulfanilate] |  |  |  |  |  |  | 6.49 | 6.03 | 6.40 |  | 34%
26 | Nc1ccc(S(=O)(=O)Nc2nccs2)cc1 [Sulfathiazole] |  |  |  |  |  | 31% | 6.38 | 6.18 | 6.17 |  | 
27 | Cc1noc(NS(=O)(=O)c2ccc(N)cc2)c1C [Sulfisoxazole] |  |  |  |  |  | 33% | 6.53 | 6.15 | 6.18 | effective | 
28 | CC1(C)S[C@@H]2[C@H](NC(=O)[C@H](C(=O)O)c3ccsc3)C(=O)N2[C@H]1C(=O)O [Ticarcillin] | 6.82 | 6.72 | 6.93 | 46% |  |  |  |  |  |  | 
29 | CCS(=O)(=O)CCn1c([N+](=O)[O-])cnc1C [Tinidazole] |  |  |  |  |  | 33% | 6.24 | 6.21 | 6.36 |  | 
30 | C[C@H]1COc2c(N3CCN(C)CC3)c(F)cc3c(=O)c(C(=O)O)cn1c23 [levofloxacin] |  |  |  |  |  | 41% |  |  |  |  | 
31 | COc1c(N2C[C@@H]3CCCN[C@@H]3C2)c(F)cc2c(=O)c(C(=O)O)cn(C3CC3)c12 [moxifloxacin] |  |  |  |  |  | 49% |  |  |  |  | 
32 | CCn1cc(C(=O)O)c(=O)c2cc(F)c(N3CCNCC3)cc21 [norfloxacin] |  |  |  |  |  | 41% |  |  |  |  | 
33 | Collistin | 7.15 | 7.26 | 7.23 |  |  |  |  |  |  |  | 
